Reference: patent publication US20250026778A1 (TIUMBIO CO., LTD., priority 2021, published 2025)
Read-outs that look alike come from different tables or passages of the source.

Target: T1, his-galectin-3 (Homo sapiens, UniProt P17931)
T1 construct: purchased Abcam
Experiment: TR-FRET assay (in vitro galectin-3 binding inhibitory activity test)
Details: compound at 20 μM, 60 nM his-galectin-3, 15 nM biotin-ASF
How it was run: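 Compound is premixed with his-galectin-3 (60 nM final), then biotin-ASF (15 nM), Tb anti-His antibody (2 nM) and streptavidin-d2 (20 nM) are added. After at least 3.5 hours at RT in HEPES/NaCl buffer with Tween 20 and BSA, TR-FRET is read at 615/665 nm. DMSO serves as the uninhibited control, ASF omission as background.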

[1] = Table 2, read-out: % Inhibitory activity (at 20 μM)
[2] = Table 1, read-out: % Inhibitory activity (at 20 μM)
[3] = read-out: % Inhibitory activity (at 20 μM), Table 1
[4] = Table 3, found values, read-out: % Inhibitory activity (at 20 μM)

T1 sequence (P17931 whole entry): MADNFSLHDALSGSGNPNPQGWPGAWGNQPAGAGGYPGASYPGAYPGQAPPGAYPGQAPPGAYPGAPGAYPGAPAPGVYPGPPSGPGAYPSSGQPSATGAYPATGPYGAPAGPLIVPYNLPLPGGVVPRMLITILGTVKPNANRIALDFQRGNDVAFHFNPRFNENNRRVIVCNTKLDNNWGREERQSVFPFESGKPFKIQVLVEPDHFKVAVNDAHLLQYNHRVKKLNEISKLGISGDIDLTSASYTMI

inhibition at 20 µM [1] | inhibition at 20 µM [2] | SMILES | other results
> 75% | – | O=C(N[C@@H]1CCO[C@]12O[C@H](CO)[C@H](O)[C@H](n1cc(-c3cc(F)c(F)c(F)c3)nn1)[C@H]2O)c1cccc2ncc(Cl)cc12 [Compound A217, 3-chloro-N-((4R,5S,7R,8R,9S,10R)-8,10-dihydroxy-7-(hydroxymethyl)-9-(4-(3,4,5-trifluorophenyl)-1H-1,2,3-triazol-1-yl)-1,6-dioxaspiro[4.5]decan-4-yl)quinoline-5-carboxamide] | –
> 75% | – | Cc1cc(C(=O)N[C@@H]2CCO[C@]23O[C@H](CO)[C@H](O)[C@H](n2cc(-c4cc(F)c(F)c(F)c4)cn2)[C@H]3O)c2cc(Cl)ccc2n1 [Compound A239, 6-chloro-N-((4R,5S,7R,8R,9S,10R)-8,10-dihydroxy-7-(hydroxymethyl)-9-(4-(3,4,5-trifluorophenyl)-1H-pyrazol-1-yl)-1,6-dioxaspiro[4.5]decan-4-yl)-2-methylquinoline-4-carboxamide] | –
< 25% | – | OC[C@H]1O[C@@]2(CCCN(c3cccc(Cl)c3)C2)[C@H](O)[C@@H](n2cc(-c3cc(F)c(F)c(F)c3)nn2)[C@H]1O [Compound A223, (2R,3R,4S,5R,6R)-8-(3-chlorophenyl)-2-(hydroxymethyl)-4-(4-(3,4,5-trifluorophenyl)-1H-1,2,3-triazol-1-yl)-1-oxa-8-azaspiro[5.5]undecane-3,5-diol] | –
< 25% | – | OC[C@H]1O[C@]2(OCC[C@H]2/N=C\c2c(O)ccc3ccccc23)[C@H](O)[C@@H](n2cc(-c3cc(F)c(F)c(F)c3)nn2)[C@H]1O [Compound A202, (4R,5S,7R,8R,9S,10R)-7-(hydroxymethyl)-4-((Z)-((2-hydroxynaphthalen-1-yl)methylene)amino)-9-(4-(3,4,5-trifluorophenyl)-1H-1,2,3-triazol-1-yl)-1,6-dioxaspiro[4.5]decane-8,10-diol] | –
> 75% | – | O=C(N[C@@H]1CCO[C@]12O[C@H](CO)[C@H](O)[C@H](n1cc(-c3cc(F)c(F)c(F)c3)nn1)[C@H]2O)c1ccc(F)c2ccccc12 [Compound A170, N-((4R,5S,7R,8R,9S,10R)-8,10-dihydroxy-7-(hydroxymethyl)-9-(4-(3,4,5-trifluorophenyl)-1H-1,2,3-triazol-1-yl)-1,6-dioxaspiro[4.5]decan-4-yl)-4-difluoro-1-naphthamide] | inhibition at 20 µM [4]: 85.3%
50 to 75% | – | COc1ccc2ccccc2c1C(=O)N[C@@H]1CCO[C@]12O[C@H](CO)[C@H](O)[C@H](n1cc(-c3cc(F)c(F)c(F)c3)nn1)[C@H]2O [Compound A242, N-((4R,5S,7R,8R,9S,10R)-8,10-dihydroxy-7-(hydroxymethyl)-9-(4-(3,4,5-trifluorophenyl)-1H-1,2,3-triazol-1-yl)-1,6-dioxaspiro[4.5]decan-4-yl)-2-methoxy-1-naphthamide] | –
< 25% | – | OC[C@H]1O[C@@]2(CCCN(c3ccccc3)C2)[C@H](O)[C@@H](n2cc(-c3cc(F)c(F)c(F)c3)nn2)[C@H]1O [Compound A191, (2R,3R,4S,5R,6R)-2-(hydroxymethyl)-8-phenyl-4-(4-(3,4,5-trifluorophenyl)-1H-1,2,3-triazol-1-yl)-1-oxa-8-azaspiro[5.5]undecane-3,5-diol] | inhibition at 20 µM [4]: 24%
< 25% | – | O=C(c1ccc(Cl)cc1)N1CCC[C@]2(C1)O[C@H](CO)[C@H](O)[C@H](n1cc(-c3cc(F)c(F)c(F)c3)nn1)[C@H]2O [Compound A227, (4-chlorophenyl)((2R,3R,4S,5R,6R)-3,5-dihydroxy-2-(hydroxymethyl)-4-(4-(3,4,5-trifluorophenyl)-1H-1,2,3-triazol-1-yl)-1-oxa-8-azaspiro[5.5]undecan-8-yl)methanone] | –

Second part, the compound before the results:

SMILES | inhibition at 20 µM [1] | inhibition at 20 µM [2] | other results
O=C(CO[C@@H]1[C@@H](n2cc(-c3cc(F)c(F)c(F)c3)nn2)[C@@H](O)[C@@H](CO)O[C@@]12CCCO2)N1CC(F)(F)C1 [Compound A33, 1-(3,3-difluoroazetidin-1-yl)-2-(((5S,7R,8R,9S,10R)-8-hydroxy-7-(hydroxymethyl)-9-(4-(3,4,5-trifluorophenyl)-1H-1,2,3-triazol-1-yl)-1,6-dioxaspiro[4.5]decan-10-yl)oxy)ethanone] | – | 25 to 50% | –
O=C(CC1CCCC1)N[C@@H]1CCO[C@]12O[C@H](CO)[C@H](O)[C@H](n1cc(-c3cc(F)c(F)c(F)c3)nn1)[C@H]2O [Compound A108, 2-cyclopentyl-N-((4R,5S,7R,8R,9S,10R)-8,10-dihydroxy-7-(hydroxymethyl)-9-(4-(3,4,5-trifluorophenyl)-1H-1,2,3-triazol-1-yl)-1,6-dioxaspiro[4.5]decan-4-yl)acetamide] | – | 25 to 50% | –
OC[C@H]1O[C@@]2(CCCO2)[C@H](OCc2ccccc2O)[C@@H](n2cc(-c3cc(F)c(F)c(F)c3)nn2)[C@H]1O [Compound A37, (5S,7R,8R,9S,10R)-10-((2-hydroxybenzyl)oxy)-7-(hydroxymethyl)-9-(4-(3,4,5-trifluorophenyl)-1H-1,2,3-triazol-1-yl)-1,6-dioxaspiro[4.5]decan-8-ol] | – | 25 to 50% | –
O=C(O[C@@H]1[C@@H](n2cc(-c3cc(F)c(F)c(F)c3)nn2)[C@@H](O)[C@@H](CO)O[C@@]12CCCCO2)c1ccccn1 [Compound A57] | – | – | inhibition at 20 µM [3]: 50 to 75%
O=C(N[C@@H]1CCO[C@]12O[C@H](CO)[C@H](O)[C@H](n1cc(-c3cc(F)c(F)c(F)c3)nn1)[C@H]2O)C1CCCC1 [Compound A107, N-((4R,5S,7R,8R,9S,10R)-8,10-dihydroxy-7-(hydroxymethyl)-9-(4-(3,4,5-trifluorophenyl)-1H-1,2,3-triazol-1-yl)-1,6-dioxaspiro[4.5]decan-4-yl)cyclopentancarboxamide] | – | 25 to 50% | –
O=C(O[C@H]1[C@@H](n2cc(-c3cc(F)c(F)c(F)c3)nn2)[C@@H](O)[C@@H](CO)O[C@@]12CCCO2)c1ccccc1 [Compound A42, (5S,7R,8R,9S,10S)-8-hydroxy-7-(hydroxymethyl)-9-(4-(3,4,5-trifluorophenyl)-1H-1,2,3-triazol-1-yl)-1,6-dioxaspiro[4.5]decan-10-yl benzoate] | – | – | inhibition at 20 µM [3]: < 25%
O=C(c1cccc(Cl)c1)N1CCC[C@]2(C1)O[C@H](CO)[C@H](O)[C@H](n1cc(-c3cc(F)c(F)c(F)c3)nn1)[C@H]2O [Compound A145, (3-chlorophenyl)((2R,3R,4S,5R,6R)-3,5-dihydroxy-2-(hydroxymethyl)-4-(4-(3,4,5-trifluorophenyl)-1H-1,2,3-triazol-1-yl)-1-oxa-8-azaspiro[5.5]undecan-8-yl)methanone] | – | – | inhibition at 20 µM [3]: < 25%
OC[C@H]1O[C@@]2(CCCN(Cc3cccc(Cl)c3)C2)[C@H](O)[C@@H](n2cc(-c3cc(F)c(F)c(F)c3)nn2)[C@H]1O [Compound A143, (2R,3R,4S,5R,6R)-8-(3-chlorobenzyl)-2-(hydroxymethyl)-4-(4-(3,4,5-trifluorophenyl)-1H-1,2,3-triazol-1-yl)-1-oxa-8-azaspiro[5.5]undecane-3,5-diol] | – | < 25% | –
OC[C@H]1O[C@@]2(CCCO2)[C@H](OCc2ccncc2)[C@@H](n2cc(-c3cc(F)c(F)c(F)c3)nn2)[C@H]1O [Compound A18, (5S,7R,8R,9S,10R)-7-(hydroxymethyl)-10-(pyridin-4-ylmethoxy)-9-(4-(3,4,5-trifluorophenyl)-1H-1,2,3-triazol-1-yl)-1,6-dioxaspiro[4.5]decan-8-ol acetate] | – | 25 to 50% | –
